Reference: patent publication US8048916B2, “Ester compound and use thereof” (Sumitomo Chemical Company, Limited, priority 2007, dated 2011)

Tested on: houseflies
Assay: Test Example 2: knock-down test on houseflies in a 70 cm cubic chamber (KT50)
Type: in vivo, housefly
Settings: 0.00625% (w/v), 0.7 ml sprayed into 70 cm cubic chamber, knock-down counted until 10 minutes
Method: Each of the compositions of the compounds (1) and (2) of the present invention obtained by Formulation Example 7 was diluted with mixed liquid of dichloromethane/deodorized kerosine=1/9 (w/w) so that the effective ingredient concentration became 0.00625% (w/v) to prepare a test solution.
Ten houseflies were released in a cubic chamber having a side of 70 cm to spray 0.7 ml of the above-mentioned oil-based preparation into the chamber through a small window on the side face of the chamber at a spray pressure of 0.9 kg/cm^2 with a spray gun. Then, the number of houseflies knocked down was counted with time until 10 minutes later (two repetitions each). The effect was evaluated with 4 grades of ⊙ to × as described below by means of a KT50 value calculated from the obtained results.
As a control test, the similar tests were performed by using as comparative reference compounds 2,3,5,6-tetrafluoro-4-methoxymethylbenzyl (1R,3S)-3-((E)-2-cyano-2-fluorovinyl)-2,2-dimethylcyclopropanecarboxylate

COCc1c(F)c(F)c(COC(=O)[C@@H]2C(/C=C(\Cl)C#N)C2(C)C)c(F)c1F (stereo in doubt) [compound (1), 2,3,5,6-tetrafluoro-4-methoxymethylbenzyl (1R,3S)-3-((Z)-2-chloro-2-cyanovinyl)-2,2-dimethylcyclopropanecarboxylate]
Efficacy (grade by KT50 value): ◯ (KT50 value is 2 minutes or more and less than 3 minutes)

COCc1c(F)c(F)c(COC(=O)[C@@H]2C(C=C(F)C#N)C2(C)C)c(F)c1F (stereo in doubt) [control compound (B), 2,3,5,6-tetrafluoro-4-methoxymethylbenzyl (1R,3S)-3-((Z)-2-cyano-2-fluorovinyl)-2,2-dimethylcyclopropanecarboxylate]
Efficacy (grade by KT50 value): Δ (KT50 value is 3 minutes or more and less than 4 minutes)

COCc1c(F)c(F)c(COC(=O)[C@@H]2C(C=C(F)C#N)C2(C)C)c(F)c1F (stereo in doubt) [control compound (A), 2,3,5,6-tetrafluoro-4-methoxymethylbenzyl (1R,3S)-3-((E)-2-cyano-2-fluorovinyl)-2,2-dimethylcyclopropanecarboxylate]
Efficacy (grade by KT50 value): X (KT50 value is 4 minutes or more)

COCc1c(F)c(F)c(COC(=O)[C@@H]2C(/C=C(/Cl)C#N)C2(C)C)c(F)c1F (stereo in doubt) [compound (2), 2,3,5,6-tetrafluoro-4-methoxymethylbenzyl (1R,3S)-3-((E)-2-chloro-2-cyanovinyl)-2,2-dimethylcyclopropanecarboxylate]
Efficacy (grade by KT50 value): ⊙ (KT50 value is less than 2 minutes)
